Measurements as given in US20230277553A1, “THERAPEUTIC COMPOSITION OF CURE-PRO COMPOUNDS FOR TARGETED DEGRADATION OF BET DOMAIN PROTEINS, AND METHODS OF MAKING AND USAGE” (CORNELL UNIVERSITY, priority 2020, published 2023).
“Also recorded” adds a separate entry of the source.

Key:
Assay type in all cases: cell-based
BRD4 [1] = target: T1, BRD4 (Homo sapiens, UniProt O60885); assay: Summary of BRD4 degradation by CURE-PRO pairs, estimated from Western Blot or WES (Proteinsimple); design: endogenous in cells; details: for Degradation of BRD4 in combination with MDM2 ligand [drawing 423] / Degradation of BRD4 in combination with MDM2 ligand [drawing 424]: Table 5, aryl-boronic acid-containing MDM2 ligand; for Degradation of BRD4 in combination with MDM2 ligand [drawing 423]: first drawing (8310); for Degradation of BRD4 in combination with MDM2 ligand [drawing 424]: second drawing (8312)
Text: A black check mark indicates efficacy of 30% to 70% or higher protein degradation.

BRD4 [2] = target: T1, BRD4; assay: CURE-PRO-mediated BRD4 degradation with MDM2 ligands, WES (ProteinSimple), HCT116 cells; design: endogenous in cells; details: HCT116, 24 h, WES; for BRD4 degradation, in combination with MDM2 ligand 8310: 1:1 with 8310, 10 μM; for BRD4 degradation, in combination with MDM2 ligand 8312: 1:1 with 8312, 10 μM
Experimental: All cell lines were purchased from ATCC or DSMZ and grown at 37° C. with 5% CO2. Human HeLa cells were cultured in complete growth medium (Dulbecco's modified Eagle's medium (DMEM) supplemented with 10% FBS); MCF7 cells were cultured in complete growth medium (Dulbecco's modified Eagle's medium (DMEM) supplemented with 10% FBS and 0.01 mg/ml human recombinant insulin (Sigma Aldrich); Namalwa and MOLM-13 cells were cultured in complete growth medium (RPMI 1640 medium supplemented with 10% FBS); MV-4-11 were cultured in complete growth medium (Iscove's Modified Dulbecco's medium, supplemented with 10% FBS); HCT116 cells were cultured in complete growth medium (McCoy's 5a Medium supplemented with 10% FBS). For cellular degradation of BRD4 studies, cells were seeded in a 12-well plate at 70-80% confluency, allowed to attach overnight, and incubated with the indicated compounds for the indicated time. When indicated, a 15-minute pretreatment with 10 μM pomalidomide, 10 μM VHL298, 10 μM Nutlin3a, 1 μM MG-132 or 1 μM Carfilzomib was performed before the addition of CURE-PROs. For washout studies, after CURE-PRO treatment, media was aspirated and incubated with complete medium for the indicated time before lysis.
WES Simple analysis was performed on WES system (ProteinSimple-Biotechne) according to the manufacturer's instructions. Total protein concentrations of cell lysates were determined by the Pierce BCA kit (Thermo Fisher). 3 μL of 0.3 μg/μL of the protein lysate was loaded onto a 12- to 230-kDa WES assay plate (ProteinSimple) where 300 nL sample was withdrawn through a capillary, subjected to electrophoretic separation of proteins by size, and followed by the simultaneous, HRP-based detection of proteins using the Anti-Rabbit Detection Module (Proteinsimple: #DM-001). The electropherograms were checked then the automatic peak detection was manually corrected if it was required.
(§1) HCT116 cells (3×10^6) were treated for 24 hours with the compounds solubilized in DMSO. Compounds were added at 1 μM-10 μM each. Standardized protein samples were electrophoresed and imaged as described in the WES ProteinSimple section above. FIGS. 59, 60, and 61 depict the concentration-dependence of CURE-PRO-mediated BRD4 degradation using MDM2 ligands.
as §1, with “62” for “59, 60,”, “63” for “61”
HCT116 cells (3×10^6) were treated for 24 hours with the compounds solubilized in DMSO. CURE-PRO monomers were added at 10 μM each and the proteasomal inhibitors at 1 μM. Standardized protein samples were electrophoresed and imaged as described in the WES ProteinSimple section above. FIG. 68 depicts the dependence of the proteasome for CURE-PRO-mediated BRD4 degradation.

BRD3 = target: T2, BRD3 (Homo sapiens, UniProt Q15059); assay: CURE-PRO-mediated BRD3 degradation with MDM2 ligands, Western blot, HCT116 cells; details: HCT116, 24 h, 1:1, 10 μM
T2 construct: endogenous in cells; host or cells: HCT116
T2 sequence (Q15059 whole entry): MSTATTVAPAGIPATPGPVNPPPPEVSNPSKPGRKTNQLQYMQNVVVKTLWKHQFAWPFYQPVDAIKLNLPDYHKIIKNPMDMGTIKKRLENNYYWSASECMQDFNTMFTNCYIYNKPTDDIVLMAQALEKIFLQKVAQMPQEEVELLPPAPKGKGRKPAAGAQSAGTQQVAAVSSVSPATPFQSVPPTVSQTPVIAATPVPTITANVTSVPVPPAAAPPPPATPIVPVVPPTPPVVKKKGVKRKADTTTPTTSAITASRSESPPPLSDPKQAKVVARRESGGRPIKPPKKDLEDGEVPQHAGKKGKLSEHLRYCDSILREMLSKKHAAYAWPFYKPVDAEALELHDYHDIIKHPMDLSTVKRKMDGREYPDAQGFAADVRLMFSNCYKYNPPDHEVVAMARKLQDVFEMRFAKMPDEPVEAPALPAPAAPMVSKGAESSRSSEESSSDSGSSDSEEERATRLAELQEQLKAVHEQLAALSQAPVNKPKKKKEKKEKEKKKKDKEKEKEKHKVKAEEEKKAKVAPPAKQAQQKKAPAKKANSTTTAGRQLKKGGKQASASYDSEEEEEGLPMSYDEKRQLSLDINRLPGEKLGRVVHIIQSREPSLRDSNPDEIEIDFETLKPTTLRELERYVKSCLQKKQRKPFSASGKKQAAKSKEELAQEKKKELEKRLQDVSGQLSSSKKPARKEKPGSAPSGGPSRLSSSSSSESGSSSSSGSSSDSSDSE
Text: Anti-BRD4 (13440, 1:1,000 dilution for Western Blot and 1:25 dilution for ProteinSimple); Anti-BRD2 (5848 1:1,000 dilution for Western Blot and 1:25 dilution for ProteinSimple); β-Actin (3700, 1:2,000 dilution for Western Blot), β-Actin (4970, 1:50 dilution for ProteinSimple) anti-mouse IgG-HRP, and anti-rabbit IgG-HRP antibodies were purchased Cell Signaling Technology. Anti-GAPDH (600-401-A33, 1:100 dilution for ProteinSimple) was purchased from Rockland Immunochemicals, Inc. Anti-BRD3 (sc-81202, 1:200 dilution for Western Blot) was purchased from Santa Cruz Biotechnology.
HeLa, MCF7, or HCT116 cells (2.5-3×10^6) were treated for 24 hours with the indicated compounds solubilized in DMSO. The cells were washed in ice-cold PBS and were then lysed in RIPA lysis buffer (150 mM NaCl, 5 mM EDTA, 1% NP-40, 0.5% sodium deoxycholate, 0.1% SDS, 50 mM Tris, pH 8.0.) with Roche protease inhibitor complete cocktail and phosphatase inhibitors (10 mM sodium fluoride, 10 mM sodium pyrophosphate, 1 mM sodium orthovanadate and 20 mM β-glycerophosphate). The total protein concentrations were determined by Bradford Protein Assay and 10-20 μg of protein was loaded onto 4-15% Tris-Glycine gradient gels (Biorad). […] Signal was detected with ECL Western Blotting Substrate (Pierce) and X-ray film processed with a Konica SRX-101 X-ray film processor or captured by Bio-Rad's Chemidoc Imaging system. […]

## CCNC(=O)C[C@@H]1N=C(c2ccc(Cl)cc2)c2cc(OCCCCC(=O)Nc3cccc(B(O)O)c3)ccc2-n2c(C)nnc21 [BRD-E20, (3-(5-(((4S)-6-(4-chlorophenyl)-4-(2-(ethylamino)-2-oxoethyl)-1-methyl-4H-benzo[f][1,2,4]triazolo[4,3-a][1,4]diazepin-8-yl)oxy)pentanamido)phenyl)boronic acid]
BRD4 [1]; Table 1, CRBN ligand, third drawing (8066)
  Degradation of BRD4 in combination with CRBN ligand [drawing 372]: ✓ (A black check mark indicates efficacy of 30% to 70% or higher protein degradation)
BRD4 [1]; Table 1, aromatic 1,2-diol- or hindered cis-1,2-diol-containing CRBN ligand, first drawing (8046)
  Degradation of BRD4 in combination with CRBN ligand [drawing 370]: ✓ (A black check mark indicates efficacy of 30% to 70% or higher protein degradation)
BRD4 [1]; Table 3, aromatic 1,2-diol-containing VHL ligand, second drawing (8305)
  Degradation of BRD4 in combination with VHL ligand [drawing 397]: ✓ (A black check mark indicates efficacy of 30% to 70% or higher protein degradation)
BRD4 [2]; 1:1 with 8313, 1-10 μM each
  BRD4 degradation, in combination with MDM2 ligand 8313: had no effect on BRD4 protein levels
BRD4 [2]; 1:1 with 8314, 1-10 μM each
  BRD4 degradation, in combination with MDM2 ligand 8314: caused partial loss of the BRD4 protein; also recorded: Degradation is observed

## CCNC(=O)C[C@@H]1N=C(c2ccc(Cl)cc2)c2cc(OCCNC(=O)c3cccc(O)c3O)ccc2-n2c(C)nnc21 [BRD-N25]
BRD4 [1]
  Degradation of BRD4 in combination with MDM2 ligand [drawing 423]: ✓ (A black check mark indicates efficacy of 30% to 70% or higher protein degradation)
  Degradation of BRD4 in combination with MDM2 ligand [drawing 424]: ✓ (A black check mark indicates efficacy of 30% to 70% or higher protein degradation)
BRD4 [2]
  BRD4 degradation, in combination with MDM2 ligand 8310: caused BRD4 degradation; also recorded: marked BRD4 degradation
  BRD4 degradation, in combination with MDM2 ligand 8312: caused BRD4 degradation
BRD3
  BRD3 degradation, in combination with MDM2 ligands 8310 and 8312: degradation of BRD3; also recorded: Degradation is evident

## CCNC(=O)C[C@@H]1N=C(c2ccc(Cl)cc2)c2cc(OCCOCCNC(=O)c3cccc(O)c3O)ccc2-n2c(C)nnc21 [BRD-N39, N-(2-(2-(((4S)-6-(4-chlorophenyl)-4-(2-(ethylamino)-2-oxoethyl)-1-methyl-4H-benzo[f][1,2,4]triazolo[4,3-a][1,4]diazepin-8-yl)oxy)ethoxy)ethyl)-2,3-dihydroxybenzamide]
BRD4 [1]; Table 4, aryl-boronic acid-containing CRBN ligand, first drawing (by text: 8048)
  Degradation of BRD4 in combination with CRBN ligand [drawing 407]: ✓ (A black check mark indicates efficacy of 30% to 70% or higher protein degradation)
BRD4 [1]
  Degradation of BRD4 in combination with MDM2 ligand [drawing 423]: ✓ (A black check mark indicates efficacy of 30% to 70% or higher protein degradation)
  Degradation of BRD4 in combination with MDM2 ligand [drawing 424]: ✓ (A black check mark indicates efficacy of 30% to 70% or higher protein degradation)
BRD4 [2]
  BRD4 degradation, in combination with MDM2 ligand 8310: caused BRD4 degradation
  BRD4 degradation, in combination with MDM2 ligand 8312: caused BRD4 degradation
BRD3
  BRD3 degradation, in combination with MDM2 ligands 8310 and 8312: degradation of BRD3; also recorded: Degradation is evident
